Here are results for six substances from patent US20030088057A1, “PEPTIDE SUBSTRATES PHOSPHORYLATED BY P21-ACTIVAGED PROTEIN KINASE STATEMENT REGARDING FEDERALLY SPONSORED REASEARCH OR DEVELOPMENT” (priority 1998, published 2003).

Like-named read-outs stand apart in the source and are kept apart here. No end group written: not given here.

The subject of test [1] is γ-PAK. Nature of the test: Rates of phosphorylation of synthetic peptides by γ-PAK. In kind it is biochemical, rabbit. The following applies: for 32P incorporated, %: AKRASAA taken as 100%; for rate of phosphorylation compared to AKRASAA: relative to AKRASAA; for substrate for γ-PAK (in words): synthetic peptides. The source says:
(§1) A. Materials. γ-PAK was purified from rabbit reticulocytes to apparent homogeneity by chromatography on DEAE-cellulose, SP-Sepharose, protamine agarose, and FPLC on Mono S and Mono Q. Histone I (type IIIS), mixed histone (type IIAS), trypsin (L-1-tosylamido-2-phenylethyl chloromethyl ketone treated), soybean trypsin inhibitor, bovine serum albumin (fatty acid free), and myelin basic protein were purchased from Sigma. Purified histones 2B and 4 were purchased from Boehringer-Mannheim. Myosin light chain from rabbit skeletal muscle was a gift from Dr. James Stull, University of Texas Southwestern Medical Center, Dallas, Tex.; rat prolactin was provided by Dr. Ameae Walker, University of California, Riverside, Calif.; and the purified catalytic subunit of cAMP-dependent protein kinase from bovine heart was a gift from Dr. William H. Fletcher, J. L. Pettis Memorial V. A. Hospital, Loma Linda, Calif. Protein kinase C was purified from bovine brain according to the procedure of Walton et al. [Walton, G. M., et al., Anal Biochem., 161:425-437 (1987)], with modifications [Venema, R. C., et al., J. Biol. Chem., 266:5298-5302 (1991)]. The clone for GST-Cdc42 was generously provided by Dr. Channing Der, University of North Carolina, Chapel Hill, N.C. Cellulose thin-layer chromatography sheets were from Kodak.
D. Phosphorylation Assays. Phosphorylation of protein substrates was carried out in 35 μL reaction mixtures containing 20 mM Tris-HCl, pH 7.4, 10 mM MgCl2, 30 mM 2-mercaptoethanol, 0.2 mM ATP (specific activity =1000 cpm/pmol), 2 μg of protein substrate, and 20 units of active γ-PAK (an enzyme unit is defined as the amount of enzyme that incorporates 1 pmol of phosphate into histone IIAS/ min at 30°. Under these conditions, phosphate incorporation was linear and initial rates of phosphorylation were measured. After incubation at 30° C. for 15 min, reactions were terminated by the addition of 5 μL of 100 mM nonlabeled ATP and sample buffer for gel electrophoresis [Hathaway, G. M., et al., Methods Enzymol., 60:495-511 (1979)]. Reaction mixtures were subjected to SDS-PAGE on 15% polyacrylamide gels followed by autoradiography. Phosphorylation was quantified by excising the protein band and counting the incorporated ^32P in a liquid scintillation counter. The specific activity of γ-PAK was 400 pmol min^−1 μg^−1 as reported previously using 0.2 mM ATP and 1 mg/mL mixed histone as substrate [Rooney, R. D., et al., (1996), supra].
(§2) Assays with peptides (I mM) were carried out with γ-PAK (1.6-5.6 units) in 25 μL reaction mixtures incubated for 30 min at 30° C. under conditions described above, except that 0.4 mg/mL of bovine serum albumin was added and the specific activity of ATP was 300-2000 cpm/pmol. Reactions were terminated with 5 μL of 100 mM ATP, and the amount of ^32p incorporated was quantitated by precipitation of 20 μL aliquots on P81 phosphocellulose paper with 75 mM H3PO4 as described previously [Bensen, E. S., et al., Biochim. Biophys. Acta, 1292:249-258 (1996)]. Peptides containing only one basic amino acid were analyzed by thin-layer electrophoresis on cellulose sheets for 2 h at 600 V with pyridine/acetic acid/water (10:100:890), pH 3.5, as solvent, as described previously [Bensen, E. S., et al., supra]. Activation of γ-PAK by autophosphorylation in the presence of Cdc42(GTPγS) was performed as previously described [Jakobi, R., et al., supra]. γ-PAK was also activated by limited digestion with trypsin as described previously [Rooney, R. D., et al., (1996), supra].

Test [2] relates to γ-PAK. Nature of the test: Kinetic parameters (Km, Vmax) for phosphorylation of synthetic peptides by γ-PAK. It is filed as biochemical, rabbit. The following applies: for Km: read-out: Km. How it is done: as §2
Test [3] relates to PKC. Nature of the test: Rates of phosphorylation of synthetic peptides by PKC. The following applies: for 32P incorporated: PKC (3.4 units), with Ca2+ and phospholipids, 0.14 mM ATP; for 32P incorporated, %: PKC, AKRASAA taken as 100%. In kind it is biochemical, bovine.
From the text: as §1
(§3) Reactions with PKA (10.5 units) were carried out under the same conditions as with γ-PAK except that 0.14 mM ATP was used. Reactions with PKC (3.4 units) were performed as with PKA, with the addition of 0.4 mM CaCl2, phosphatidylinositol (15 μg/mL), phosphatidylserine (15 μg/ mL), and 1,2-diolein (3 μg/mL), as described [Tuazon, P. T., et al., (1989), supra]. A unit of PKA or PKC is defined as the amount of enzyme that incorporates 1 pmol of phosphate/min at 30° C. into histone IIAS or histone 1, respectively.
PKA and PKC are known to require basic amino acids on the N-terminal side of the phosphorylatable serine/ threonine. To distinguish their substrate specificities from that of γ-PAK, the relative rates of phosphorylation were determined with the synthetic peptide substrates using the conditions for γ-PAK, with the addition of Ca^2+ and phospholipids for PKC. The rates shown in Table 5 are calculated with equivalent units of enzyme; the rate of phosphorylation of the peptide AKRASAA (SEQ ID NO:6) is taken as 100% for all three enzymes. As would be expected, PKA preferentially phosphorylated the peptides that contained RR or RK at the −3 and −2 positions and with […] residues or proline at the −4 and −1 positions inhibitory. PKC recognized SKR>RKS>KKS. The most notable difference between γ-PAK and PKA or PKC is the effect of acidic residues on the susceptibility of the peptide to be phosphorylated. An acidic residue in the −1 or −4 position was beneficial for γ-PAK but was detrimental for both PKA and PKC (Table 5). […] In addition, γ-PAK could not tolerate an arginine in the −3 position when lysine was in the −2 position.

Test [4] concerns the target T1, PKA (Bos taurus, UniProt P00517).
T1 construct: the purified catalytic subunit of cAMP-dependent protein kinase from bovine heart was a gift; from tissue; host or cells: bovine heart (gift from Dr. William H. Fletcher)
Nature of the test: Rates of phosphorylation of synthetic peptides by PKA. In kind it is biochemical, bovine. The following applies: for 32P incorporated: PKA (10.5 units), 0.14 mM ATP; for 32P incorporated, %: PKA, AKRASAA taken as 100%.
From the text: as §1, with “Myosin light chain from rabbit skeletal muscle was a gift from Dr. James Stull, University of Texas Southwestern Medical Center, Dallas, Tex.; rat prolactin was provided by Dr. Ameae Walker, University of California, Riverside, Calif.; and the purified catalytic subunit of cAMP-dependent protein kinase from bovine heart was a gift from Dr. William H. Fletcher, J. L. Pettis Memorial V. A. Hospital, Loma Linda, Calif.” left out
as §3
PKA and PKC are known to require basic amino acids on the N-terminal side of the phosphorylatable serine/ threonine. To distinguish their substrate specificities from that of γ-PAK, the relative rates of phosphorylation were determined with the synthetic peptide substrates using the conditions for γ-PAK, with the addition of Ca^2+ and phospholipids for PKC.

Where [5] appears, read: Cdc42(GTPγS)-activated γ-PAK, peptide 1 mM, KKRKSAA = 100.
[6] abbreviates: proteolytically (trypsin) activated γ-PAK, peptide 1 mM, compared to KKRKSAA = 100.
Where [7] appears, read: proteolytically activated γ-PAK (5.6 units), peptide 1 mM, 30 min at 30° C.
[8] abbreviates: γ-PAK, calculated with equivalent units of enzyme.
Where [9] appears, read: Table 2, influence of basic amino acids, γ-PAK 1.6 units, ATP 0.2 mM.
Where [10] appears, read: Table 3, influence of acidic amino acids.
[11] abbreviates: Table 4, influence of proline and glycine.

Chain of γ-PAK (Q29502 249-500 limits assumed): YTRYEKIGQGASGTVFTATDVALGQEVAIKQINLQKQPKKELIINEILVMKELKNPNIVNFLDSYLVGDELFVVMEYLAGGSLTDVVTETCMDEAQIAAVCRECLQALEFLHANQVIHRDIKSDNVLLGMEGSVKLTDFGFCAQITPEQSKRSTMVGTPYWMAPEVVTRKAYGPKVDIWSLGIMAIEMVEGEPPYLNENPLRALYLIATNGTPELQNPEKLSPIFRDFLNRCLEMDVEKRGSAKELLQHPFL

By Km is commonly meant the concentration of substrate that gives half-maximal velocity. “AKRASAA (AKRASAA-NH2) [synthetic peptide with an amide C-terminal group]”: the results for the “rel rate (%)” value in test [1] (setting [5]) and in test [1] (setting [6]) were 189% and 141%, respectively. For the same substance, the 32P incorporated in test [1] (setting [7]) was 426 pmol/min/µg; in test [1] (setting [8]), 26.8 pmol/unit; in test [3] it was 3.0 pmol/unit; in test [4], 4.8 pmol/unit. Further, the “32P incorporated, %” value in test [1] (γ-PAK), in test [3] and in test [4] was 100% in each case. Also, the Vmax in test [2] (setting [9]) is reported as 1.04 pmol/min; in test [2] (setting [10]) it was 11.04 pmol/min; in test [2] (setting [11]), 1.04 pmol/min. The Km in test [2] (setting [9]), in test [2] (setting [10]) and in test [2] (setting [11]) was 460 µM throughout.
As to “AKRASEA (AKRASEA-NH2) [synthetic peptide with an amide C-terminal group]”, the results for the “rel rate (%)” value in test [1] (setting [5]) and in test [1] (setting [6]) were 88% and 108%, respectively. The 32P incorporated is 326 pmol/min/µg in test [1] (setting [7]), 18.3 pmol/unit in test [1] (setting [8]), 0.2 pmol/unit in test [3] and 3.6 pmol/unit in test [4]. Moreover, the “32P incorporated, %” value in test [1] (γ-PAK) was found to be 68%; in test [3] it was 6%; in test [4] it was 75%. Further, the “rate of phosphorylation compared to AKRASAA” value in test [1] (γ-PAK) was found to be 71%. In addition, in test [2], the “increase of Km compared to AKRASAA” value is reported as about 3 fold. In test [2], the “overall rate of phosphorylation (Vmax/Km) compared to AKRASAA” value came to 0.7 fold. In addition, in test [2] (setting [10]), the Vmax is listed as 2.22 pmol/min. Also, in test [2] (setting [10]), the Km amounted to 1420 µM.
Turning to “ARRASAA (ARRASAA-NH2) [synthetic peptide with an amide C-terminal group]”, the “rel rate (%)” value in test [1] (setting [5]) was determined as 134%; in test [1] (setting [6]), 129%. Also, the 32P incorporated in test [1] (setting [7]) was 391 pmol/min/µg; in test [1] (setting [8]), 25.0 pmol/unit; in test [3], 18.8 pmol/unit. In addition, in test [1], the “substrate for γ-PAK (in words)” value is listed as “as good a substrate as AKRASAA”. For the same substance, the “32P incorporated, %” value is given as 93% in test [1] (γ-PAK) and 570% in test [3]. Also, the Vmax in test [2] (setting [9]) amounted to 2.11 pmol/min. Besides, the Km in test [2] (setting [9]) was determined as 650 µM.
With “EKRASAA (EKRASAA-NH2) [synthetic peptide with an amide C-terminal group]”, the results for the “rel rate (%)” value in test [1] (setting [5]) and in test [1] (setting [6]) were 151% and 160%, respectively. In addition, the 32P incorporated in test [1] (setting [7]) is 484 pmol/min/µg; in test [1] (setting [8]), 30.2 pmol/unit; in test [3], 0.1 pmol/unit; in test [4] it was 1.7 pmol/unit. The figures for the “32P incorporated, %” value in test [1] (γ-PAK), in test [3] and in test [4] were 113%, 3% and 4%, respectively. The “rate of phosphorylation compared to AKRASAA” value in test [1] (γ-PAK) is listed as 113%. Besides, the “increase of Km compared to AKRASAA” value in test [2] amounted to 2 fold. Moreover, in test [2], the “overall rate of phosphorylation (Vmax/Km) compared to AKRASAA” value is 1.3 fold. The Vmax in test [2] (setting [10]) and in test [2] (text summary b32) was 2.48 pmol/min in each case. In addition, the Km in test [2] (setting [10]) came out at 890 µM.
“KKRKSAA [model peptide patterned after the phosphorylation site of nucleocapsid protein NC]”: the “rel rate (%)” value in test [1] (setting [5]) and in test [1] (setting [6]) was 100% in each case. Further, the 32P incorporated is 302 pmol/min/µg in test [1] (setting [7]), 19.2 pmol/unit in test [1] (setting [8]) and 11.1 pmol/unit in test [3]. In addition, the “32P incorporated, %” value in test [1] (γ-PAK) is 72%; in test [3] it was 370%. In addition, the Vmax in test [2] (setting [9]) was determined as 1.84 pmol/min; in test [2] (text b67, b73), 302 pmol/min/µg. The Km in test [2] (setting [9]) came to 610 µM.
“RKKKSAA (RKKKSAA-NH2) [synthetic peptide with an amide C-terminal group]”: the “rel rate (%)” value was 3% in test [1] (setting [5]) and 0% in test [1] (setting [6]). Besides, the 32P incorporated was 0 pmol/min/µg in test [1] (setting [7]), 0.1 pmol/unit in test [1] (setting [8]), 3.1 pmol/unit in test [3] and 5.4 pmol/unit in test [4]. Further, the “substrate for γ-PAK (in words)” value in test [1] was “poor substrates”. Moreover, the “32P incorporated, %” value in test [1] (γ-PAK) was determined as 0%; in test [3], 94%.
